In US12290565B2, “Methods of using anti-PSGL-1 antibodies in combination with JAK inhibitors to treat T-cell mediated inflammatory diseases or cancers” (AltruBio Inc., priority 2021, dated 2025):
Like-named read-outs stand apart in the source and are kept apart here.

What was measured:
[1] = tested on: xenogeneic GvHD in ASID mice engrafted with human PBMCs; test: Xenogeneic graft-versus-host disease (GvHD) mouse model, survival; type: in vivo; settings: ruxolitinib 45 mg/kg oral twice daily 15 days and/or 15A7H 10 mg/kg i.v. every 3 to 4 days, 5 doses
Description: 8-9 weeks old female Advanced Severe Immuno-Deficiency (ASID) mice (NOD.Cg-Prkdc^scidIl2rg^tm1Wjl/YckNarl; NLAC NARLabs Taiwan) received a total body irradiation dose of 2.0 Gy and were engrafted with 3×10^6 human PBMCs by tail vein injection at 24 hours post irradiation. The mice were kept under pathogen-free conditions and reared under standardized methods as temperature set at 22±1° C. with a 12-hour daylight/dark cycle and full access to food and water. Experimental animals were randomly divided into treatment groups after receiving a minimum of 3 days of acclimatization to the environment.
Xenogeneic GvHD (xGvHD) was induced in ASID mice receiving 3×10^6 human PBMCs (n=5-7 per group). Post 72 hours of human PBMC engraftment, ruxolitinib at 45 mg/kg or vehicle was orally administered twice daily for 15 days, as well as anti-PSGL-1 15A7H antibody at 10 mg/kg or vehicle was intravenously administered every 3 to 4 days for total 5 doses. Mice were assessed for survival daily. The time of the treatment initiated was designated as Day 1.

activated T cells [2] = test: Fixed-ratio combination cytotoxicity assay, ruxolitinib + 15A7H (Chou-Talalay, Calcusyn); type: cell-based, human; settings: for EC50: Homo sapiens, T-cell; for DRIRUXO (Dose-Reduction Index): EC50 level
Description: T cell stimulation was achieved through Phytohemagglutinin-L (PHA) treatment prior to the apoptosis assays described below. In brief, human blood samples used in the study were obtained from heathy human donors. […] The buffy coat layer containing mononuclear cells was collected and washed 3 times with phosphate-buffered saline (PBS) to minimize platelet contamination.
Activated T cells were seeded in 96-well plates at 1-1.5×10^5 cells/mL and were treated with ruxolitinib and antibody 15A7H alone, or in combination at fixed concentration ratios. For the combination of ruxolitinib and antibody 15A7H, fixed ratios at 3.3:1 and 1.1:1 were tested on T cells from four donors. In addition, a fixed ratio of ruxolitinib and antibody 15A7H of 0.37:1 was tested on T cells from two donors.
Cell apoptosis was measured using an Annexin-V FITC Apoptosis Detection Kit (Strong Biotech, AVK250), according to the manufacturer's instructions.
Results were expressed as apoptosis fractions (fraction affected), based on the measured fluorescence counts of treated samples, compared with that of untreated controls. Seven diagonals representing various dose-effect curves with fixed drug ratios were used to measure the combination indexes (CI) for each of the combinations with Calcusyn software (Biosoft). The combinatorial effect was defined as “synergistic”, “additive” or “antagonistic” when CI was <1, 1 and >1, respectively.

activated T cells [3] = test: T cell apoptosis assay (Annexin V/PI FACS), 15A7H and/or ruxolitinib; type: cell-based, human; settings: ruxolitinib alone, 0.122-10 μM, 48 hours
Description: T cell stimulation was achieved through Phytohemagglutinin-L (PHA) treatment prior to the apoptosis assays described below. In brief, human blood samples used in the study were obtained from heathy human donors. Peripheral blood mononuclear cells (PBMCs) were freshly isolated from whole blood by Ficoll-Hypaque gradient centrifugation (Ficoll-Paque PLUS, GE Healthcare, Cat #17-1440-03) at 2400 revolutions per minute (rpm) for 15 minutes at room temperature. The buffy coat layer containing mononuclear cells was collected and washed 3 times with phosphate-buffered saline (PBS) to minimize platelet contamination. […]
Fluorescence-activated cell sorting (FACS) analysis using the Annexin V/propidium iodide (PI) staining method was used to determine the apoptotic rate in drug- and control-treated cells. […]
Samples were run on a flow cytometer (BD LSR scanner; BD Biosciences, San Diego), and cell viability and apoptosis were calculated using a quadrant on the Annexin-V-FITC/PI histogram. Living cells were identified as those negatively stained for both fluorescence dyes, early apoptotic cells were identified as those only Annexin-V-FITC-positive, necrotic cells were identified as those only PI-positive, and late apoptotic cells were identified as those positively stained for both fluorescence dyes. […]

activated T cells [4] = test: Fixed-ratio combination cytotoxicity assay, ruxolitinib + LH10, c43B6 or h9F9; type: cell-based; settings: antibody with cross-linker
Description: PBMCs were obtained from peripheral blood of healthy donors. Isolation was performed by density centrifugation of blood on Ficoll (GE Healthcare, Cat #17-1440-03). The harvested PBMCs were used for the generation of activated T cells by incubating with PHA (3 μg/mL, SIGMA, Cat: L2769-10 mg) in RPMI-1640 medium (10% FBS, 1% Penicillin/Streptomycin and 2-Mercaptoethanol) for 2 days, followed by maintenance in medium containing recombinant human Interleukin-2 (5 ng/mL, R&D Systems, Cat. #202-IL-050) for an additional between about 4˜6 days.
In addition to 15A7H, anti-PSGL-1 antibodies LH10, c43B6 and h9F9 were tested for the ability to induce cell death in activated T cells. The purpose of this study was to determine whether apoptosis inducing anti-PSGL-1 antibodies plus ruxolitinib would result in a better cytotoxic effect on activated T cells. The combinatorial effect was evaluated using Chou-Talalay median effect analysis using fixed ratios of antibodies and ruxolitinib in cytotoxicity assays. […]
Cell apoptosis was determined as described in Example 1, and the combinatorial drug effect combination indexes (CI) were analyzed using CalcuSyn (Biosoft, Ferguson, MO, USA), which allows automated simulation of synergism or antagonism, where CI<1 indicates synergy, CI=1 indicates additivity, and CI>1 indicates antagonism.

Molecule: N#CC[C@H](C1CCCC1)n1cc(-c2ncnc3[nH]ccc23)cn1 [RUXO, (R)-3-(4-(7H-pyrrolo[2,3-d]pyrimidin-4-yl)-1 H-pyrazol-1-yl)-3-cyclopentylpropanenitrile]
- effect on xenogeneic GVHD induced by human lymphocytes [1]: ameliorated xenogeneic GVHD
- EC50 (activated T cells [2]; donor N084, RUXO + 15A7H, ratio 1.1:1, read-out: EC50RUXO Combination Treatment): 201 nM
- EC50 (activated T cells [2]; donor N084, RUXO + 15A7H, ratio 3.3:1, read-out: EC50RUXO Combination Treatment): 373 nM
- EC50 (activated T cells [2]; donor N084, RUXO alone, section ratio 1.1:1, read-out: EC50RUXO Single Treatment): 4220 nM
- EC50 (activated T cells [2]; donor N084, RUXO alone, section ratio 3.3:1, read-out: EC50RUXO Single Treatment): 4220 nM
- EC50 (activated T cells [2]; donor N089, RUXO + 15A7H, ratio 1.1:1, read-out: EC50RUXO Combination Treatment): 394 nM
- EC50 (activated T cells [2]; donor N089, RUXO + 15A7H, ratio 3.3:1, read-out: EC50RUXO Combination Treatment): 479 nM
- EC50 (activated T cells [2]; donor N089, RUXO alone, section ratio 1.1:1, read-out: EC50RUXO Single Treatment): 2360 nM
- EC50 (activated T cells [2]; donor N089, RUXO alone, section ratio 3.3:1, read-out: EC50RUXO Single Treatment): 2000 nM
- EC50 (activated T cells [2]; donor N102, RUXO + 15A7H, ratio 0.37:1, read-out: EC50RUXO Combination Treatment): 165 nM
- EC50 (activated T cells [2]; donor N102, RUXO + 15A7H, ratio 1.1:1, read-out: EC50RUXO Combination Treatment): 499 nM
- EC50 (activated T cells [2]; donor N102, RUXO + 15A7H, ratio 3.3:1, read-out: EC50RUXO Combination Treatment): 1150 nM
- EC50 (activated T cells [2]; donor N102, RUXO alone, section ratio 0.37:1, read-out: EC50RUXO Single Treatment): 10100 nM
- EC50 (activated T cells [2]; donor N102, RUXO alone, section ratio 1.1:1, read-out: EC50RUXO Single Treatment): 10100 nM
- EC50 (activated T cells [2]; donor N102, RUXO alone, section ratio 3.3:1, read-out: EC50RUXO Single Treatment): 10100 nM
- EC50 (activated T cells [2]; donor N103, RUXO + 15A7H, ratio 0.37:1, read-out: EC50RUXO Combination Treatment): 266 nM
- EC50 (activated T cells [2]; donor N103, RUXO + 15A7H, ratio 1.1:1, read-out: EC50RUXO Combination Treatment): 554 nM
- EC50 (activated T cells [2]; donor N103, RUXO + 15A7H, ratio 3.3:1, read-out: EC50RUXO Combination Treatment): 1010 nM
- EC50 (activated T cells [2]; donor N103, RUXO alone, section ratio 0.37:1, read-out: EC50RUXO Single Treatment): 9170 nM
- EC50 (activated T cells [2]; donor N103, RUXO alone, section ratio 1.1:1, read-out: EC50RUXO Single Treatment): 9170 nM
- EC50 (activated T cells [2]; donor N103, RUXO alone, section ratio 3.3:1, read-out: EC50RUXO Single Treatment): 9170 nM
- DRIRUXO (Dose-Reduction Index) (activated T cells [2]; donor N084, RUXO + 15A7H, ratio 1.1:1): 20.9884
- DRIRUXO (Dose-Reduction Index) (activated T cells [2]; donor N084, RUXO + 15A7H, ratio 3.3:1): 11.3242
- DRIRUXO (Dose-Reduction Index) (activated T cells [2]; donor N089, RUXO + 15A7H, ratio 1.1:1): 6.0012
- DRIRUXO (Dose-Reduction Index) (activated T cells [2]; donor N089, RUXO + 15A7H, ratio 3.3:1): 4.1685
- DRIRUXO (Dose-Reduction Index) (activated T cells [2]; donor N102, RUXO + 15A7H, ratio 0.37:1): 61.2797
- DRIRUXO (Dose-Reduction Index) (activated T cells [2]; donor N102, RUXO + 15A7H, ratio 1.1:1): 20.2269
- DRIRUXO (Dose-Reduction Index) (activated T cells [2]; donor N102, RUXO + 15A7H, ratio 3.3:1): 8.7676
- DRIRUXO (Dose-Reduction Index) (activated T cells [2]; donor N103, RUXO + 15A7H, ratio 0.37:1): 34.4195
- DRIRUXO (Dose-Reduction Index) (activated T cells [2]; donor N103, RUXO + 15A7H, ratio 1.1:1): 16.5574
- DRIRUXO (Dose-Reduction Index) (activated T cells [2]; donor N103, RUXO + 15A7H, ratio 3.3:1): 9.0902
- increase in apoptosis over background levels (activated T cells [3]): minimal or no increases in apoptosis over background levels

B1: h9F9: anti-PSGL-1 antibody; heavy chain SEQ ID NO:35, light chain SEQ ID NO:39 (antibody)
heavy: EVQLVESGGGLVQPGGSLKLSCAASGFTFNTNAMNWVRQAPGKGLEWVARIRSKSNNYATYYADSVKDRFTISRDDSKSIIYLQMNSLKTEDTGIYYCVRGGSYWYFDVWGTGTTVTVSSASTKGPSVFPLAPCSRSTSESTAALGCLVKDYFPEPVTVSWNSGALTSGVHTFPAVLQSSGLYSLSSVVTVPSSSLGTKTYTCNVDHKPSNTKVDKRVESKYGPPCPPCPAPPVAGGPSVFLFPPKPKDTLMISRTPEVTCVVVDVSQEDPEVQFNWYVDGVEVHNAKTKPREEQFNSTYRVVSVLTVLHQDWLNGKEYKCKVSNKGLPSSIEKTISKAKGQPREPQVYTLPPSQEEMTKNQVSLTCLVKGFYPSDIAVEWESNGQPENNYKTTPPVLDSDGSFFLYSRLTVDKSRWQEGNVFSCSVMHEALHNHYTQKSLSLSLG
light: DVIMTQSPLSLPVSLGQPASISCRSSQSIVNSNGNTYLEWYLQKPGQSPRLLIYKVSNRFSGVPDRFSGSGSGTDFTLKISRVEAEDVGVYYCFQGSHVPWTFGGGTKLEIKRTVAAPSVFIFPPSDEQLKSGTASVVCLLNNFYPREAKVQWKVDNALQSGNSQESVTEQDSKDSTYSLSSTLTLSKADYEKHKVYACEVTHQGLSSPVTKSFNRGEC
- cytotoxicity ability in activated T cells (activated T cells [4]): had cytotoxicity ability
